Laboratory results taken from ChEMBL document CHEMBL1155011, “Structure-activity relationships of the cycloalkanol ethylamine scaffold: discovery of selective norepinephrine reuptake inhibitors” (J Med Chem, 2008).

How the values were obtained:
[1] = molecular target: T1, Sodium-dependent dopamine transporter (Homo sapiens, UniProt Q01959); test: Displacement of [3H]WIN-35428 from human recombinant dopamine transporter expressed in CHO cells at 1000 nM; format: cell-based
[2] = molecular target: T2, Sodium-dependent noradrenaline transporter (Homo sapiens, UniProt P23975)
T2 sequence (P23975 whole entry): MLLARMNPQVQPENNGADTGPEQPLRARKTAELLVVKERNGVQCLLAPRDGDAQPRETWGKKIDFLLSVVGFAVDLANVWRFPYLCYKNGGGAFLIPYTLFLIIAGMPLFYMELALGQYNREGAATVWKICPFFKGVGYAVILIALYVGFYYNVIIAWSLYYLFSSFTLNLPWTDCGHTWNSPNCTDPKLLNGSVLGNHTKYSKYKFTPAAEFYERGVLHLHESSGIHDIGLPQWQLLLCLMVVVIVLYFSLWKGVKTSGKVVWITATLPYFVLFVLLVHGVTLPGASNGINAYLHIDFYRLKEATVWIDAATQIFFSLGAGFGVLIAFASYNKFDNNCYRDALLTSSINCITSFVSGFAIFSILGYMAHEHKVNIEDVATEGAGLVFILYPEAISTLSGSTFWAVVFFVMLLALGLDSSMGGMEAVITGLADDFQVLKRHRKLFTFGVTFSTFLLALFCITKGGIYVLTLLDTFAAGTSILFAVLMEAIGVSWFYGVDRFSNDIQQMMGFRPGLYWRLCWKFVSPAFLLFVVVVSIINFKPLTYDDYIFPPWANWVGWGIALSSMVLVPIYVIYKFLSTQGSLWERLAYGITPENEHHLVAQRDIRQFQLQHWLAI

[3] = molecular target: T2, Sodium-dependent noradrenaline transporter; test: biochemical
[4] = molecular target: T3, Sodium-dependent serotonin transporter (Homo sapiens, UniProt P31645); format: cell-based, JAR
Target sequence in this assay (P31645 whole entry): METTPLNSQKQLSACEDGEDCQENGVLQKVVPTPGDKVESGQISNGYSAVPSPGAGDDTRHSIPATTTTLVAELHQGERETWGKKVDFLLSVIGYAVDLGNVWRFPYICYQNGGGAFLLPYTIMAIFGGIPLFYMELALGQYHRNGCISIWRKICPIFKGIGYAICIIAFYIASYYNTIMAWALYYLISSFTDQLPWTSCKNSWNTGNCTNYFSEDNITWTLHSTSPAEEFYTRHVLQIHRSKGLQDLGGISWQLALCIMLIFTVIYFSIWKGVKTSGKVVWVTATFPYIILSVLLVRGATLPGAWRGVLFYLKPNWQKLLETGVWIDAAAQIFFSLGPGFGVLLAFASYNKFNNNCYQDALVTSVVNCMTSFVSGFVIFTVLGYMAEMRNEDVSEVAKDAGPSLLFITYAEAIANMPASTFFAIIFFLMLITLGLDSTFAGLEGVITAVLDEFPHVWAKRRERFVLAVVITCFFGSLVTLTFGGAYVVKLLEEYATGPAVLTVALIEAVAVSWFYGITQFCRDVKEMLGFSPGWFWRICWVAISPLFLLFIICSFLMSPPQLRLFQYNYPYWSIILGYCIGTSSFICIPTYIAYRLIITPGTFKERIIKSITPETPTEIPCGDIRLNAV

[5] = molecular target: T3, Sodium-dependent serotonin transporter; test: Inhibition of 5HT uptake at human SERT expressed in human JAR cells at 1000 nM; format: cell-based
Target sequence in this assay (P31645 whole entry, looked up): as the sequence (P31645 whole entry) above

[6] = molecular target: T2, Sodium-dependent noradrenaline transporter; test: Inhibition of norepinephrine uptake at human norepinephrine transporter expressed in MDCK-Net6 cells at 1000 nM; format: cell-based
[7] = molecular target: T2, Sodium-dependent noradrenaline transporter; test: Displacement of [3H]nisoxetine from human norepinephrine transporter expressed in MDCK-Net6 cells at 1000 nM; format: cell-based
[8] = molecular target: T1, Sodium-dependent dopamine transporter; test: biochemical
Homo sapiens = species on record: Homo sapiens; test: Selectivity ratio of IC50 for human NET over IC50 for human SERT
Transporter = Transporter (Rattus norvegicus, UniProt Q63380)
Chain of Transporter (Q63380 whole entry): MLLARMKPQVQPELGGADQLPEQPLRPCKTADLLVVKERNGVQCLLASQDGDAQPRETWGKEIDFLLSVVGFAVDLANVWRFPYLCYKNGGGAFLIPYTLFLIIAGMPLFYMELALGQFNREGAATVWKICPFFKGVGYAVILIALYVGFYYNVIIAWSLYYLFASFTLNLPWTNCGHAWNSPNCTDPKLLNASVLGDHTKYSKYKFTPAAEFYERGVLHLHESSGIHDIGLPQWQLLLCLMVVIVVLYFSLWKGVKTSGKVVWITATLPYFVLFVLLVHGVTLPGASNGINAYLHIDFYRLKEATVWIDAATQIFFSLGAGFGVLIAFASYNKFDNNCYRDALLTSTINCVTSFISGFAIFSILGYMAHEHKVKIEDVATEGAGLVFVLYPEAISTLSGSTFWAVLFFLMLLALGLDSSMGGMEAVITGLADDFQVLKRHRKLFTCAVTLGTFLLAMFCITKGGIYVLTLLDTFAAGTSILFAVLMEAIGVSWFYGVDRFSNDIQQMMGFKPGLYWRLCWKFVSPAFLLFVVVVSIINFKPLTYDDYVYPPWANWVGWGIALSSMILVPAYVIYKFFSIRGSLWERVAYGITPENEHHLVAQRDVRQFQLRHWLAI
Description: Inhibition of norepinephrine uptake at rat brain norepinephrine transporter

T1 sequence (Q01959 whole entry): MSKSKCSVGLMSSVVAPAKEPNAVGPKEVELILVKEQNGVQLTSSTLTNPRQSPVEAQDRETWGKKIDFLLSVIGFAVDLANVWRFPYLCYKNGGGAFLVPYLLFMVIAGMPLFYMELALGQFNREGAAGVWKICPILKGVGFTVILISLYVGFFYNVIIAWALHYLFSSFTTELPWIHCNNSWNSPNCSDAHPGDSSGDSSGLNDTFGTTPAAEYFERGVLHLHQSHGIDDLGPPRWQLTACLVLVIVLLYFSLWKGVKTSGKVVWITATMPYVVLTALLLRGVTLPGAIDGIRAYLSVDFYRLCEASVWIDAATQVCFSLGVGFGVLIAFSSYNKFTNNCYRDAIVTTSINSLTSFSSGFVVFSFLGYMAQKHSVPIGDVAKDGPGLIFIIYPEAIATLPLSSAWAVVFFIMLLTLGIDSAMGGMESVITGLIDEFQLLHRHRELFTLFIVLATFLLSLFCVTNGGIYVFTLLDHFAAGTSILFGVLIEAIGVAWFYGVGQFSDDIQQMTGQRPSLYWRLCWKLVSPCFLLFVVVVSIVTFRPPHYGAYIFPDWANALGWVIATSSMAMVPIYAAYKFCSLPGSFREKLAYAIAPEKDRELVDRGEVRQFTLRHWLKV

`CN1CCN(CC(c2ccc(OC(F)(F)F)cc2)C2(O)CCCCC2)CC1` (stereo not given) gave an Activity [1] of 13%, an IC50 [2] of 0.575 µM and a Ki [3] of 0.417 µM. The IC50 [4] was 1.21 µM.

In the case of `COc1cccc(C(CN2CCN(C)CC2)C2(O)CCCCC2)c1` (stereo not given), the Activity [1] is reported as 4%, the inhibition [5] is reported as 14% and the IC50 [2] is reported as 0.6 µM. The Ki [3] was 0.514 µM.

`CN1CCN(CC(c2ccc(F)cc2)C2(O)CCCCC2)CC1` (stereo not given) was tested, and the Activity [1] was 0%, the inhibition [5] was 32% and the IC50 [2] was 1.45 µM. For the same molecule, the Ki [3] was 1.38 µM.

`OC1(C(CN2CCNCC2)c2ccccc2F)CCCCC1` (stereo not given) was tested, and the inhibition [6] was 31% and the Activity [7] was 38%.

`CN1CCN(C[C@@H](c2cccc(Cl)c2)C2(O)CCCCC2)CC1` gave an inhibition [5] of 0%, an IC50 [2] of 0.577 µM and a Ki [3] of 0.187 µM. It also gave a Ki [8] of 0.235 µM.

Work on `CN(C)CC(c1cccc(C(F)(F)F)c1)C1(O)CCCCC1` (stereo not given) yielded a Ratio IC50 (Homo sapiens) of 16.7, an Activity [1] of 15% and an IC50 [2] of 0.032 µM. It also gave a Ki [3] of 0.021 µM, an IC50 [4] of 0.534 µM and an IC50 (Transporter) of 0.36 µM.

With `CN(C)CC(c1cccc(Cl)c1)C1(O)CCCCC1` (stereo not given) the Activity [1] was 28% and the IC50 (Transporter) was 0.16 µM.

Molecule `OC1(C(CN2CCNCC2)c2cccc(F)c2)CCCCC1` (stereo not given) has an Activity [1] of 22%, an inhibition [5] of 12% and an IC50 [2] of 0.673 µM. The Ki [3] was 0.368 µM.
